The experiment concerns 454973-116-R2-J3-PDC spheroids, viability, % test/control. Put plainly: Anticancer human tumor 454973-116-R2-J3-PDC patient-derived pancreatic carcinoma cell line growth inhibition [GQUAD]. Particulars: spheroids with HUVEC and MSC; for viability, T/C: stronger effect = lower value. An excerpt:
DNA G-quadruplex Stabilizer Agents in Combinations in Complex Spheroids
A high-throughput screen of multi-cell type tumor spheroids was designed to identify active combinations of DNA G-quadruplex stabilizer agents and targeted small molecules. Complex spheroids include a stromal component modeled by human endothelial cells (HUVEC) and fibroblasts modeled by human mesenchymal stem cells (MSCs). The concentration ranges selected for each drug and investigational agent were based upon clinically achievable concentrations if the clinical Cmax of the agent was known.
Compounds. The drugs and investigational agents: pidnarulex (CX-5461; NSC782164), APTO-253 (NSC789042), BRACO-19 (NSC847499), peposertib (NSC802822), ceralasertib (NSC780249), elimusertib (NSC800525), camonsertib (NSC841442), AZD-1390 (NSC803789), olaparib (NSC753686), talazoparib (NSC767125), ART-558 (NSC835418), sotorasib (NSC818433), MRTX-1133 (NSC836407), SN-38 (NSC673596), topotecan (NSC609699), etoposide (NSC141540), doxorubicin (NSC123127), gemcitabine (NSC613327), 5-fluorouracil (NSC19893), paclitaxel (NSC125973), vemurafenib (NSC761431), panobinostat (NSC761190), R-306465 (JNJ-16241199; NSC773264), adavosertib (NSC754352), TP-3654 (NSC805149), carboplatin (NSC241240), KSQ-4279 (NSC840948), and staurosporine (NSC755774) were obtained from the National Cancer Institute (NCI) Developmental Therapeutics Program Chemical Repository (34). The FDA-approved anticancer drug set is available from the NCI Developmental Therapeutics Program. […] The stock solutions were prepared in dimethyl sulfoxide (DMSO, Sigma-Aldrich, St. Louis, MO, cat. D2650) at 800-fold the tested concentration and stored at -70 degrees C prior to their use. All drugs and investigational agents were tested over a range starting from a high concentration at or near the clinical Cmax and decreasing in half-log increments. If the clinical Cmax for an agent had not been determined, the highest concentration tested was 10 microM.
2.3 Cell Culture. All cells were maintained in an incubator at 37 degrees C and 5% CO2 with 95% humidity. The PDC lines were cultured according to standard operating procedures established by the NCI PDMR. All PDCs were thawed and cultured in Matrigel-coated flasks prepared with a working solution of 1X Ham's F-12 nutrient mix, without supplementation (Invitrogen, cat. 11765054), 100 U/mL penicillin-streptomycin (Invitrogen, cat. 15140122), and 2.5% Matrigel (Corning Inc., cat. 354248) for the first three passages. The 857933-349-R-J2-PDC line was cultured in 6C/Colon 1B media, which includes advanced DMEM/F-12 (Thermo Fisher Scientific, cat. 12634028), 10 mM HEPES (Thermo Fisher Scientific, cat. 15630080), 1X GlutaMAX supplement (Thermo Fisher Scientific, cat. 35050061), 0.1 mg/mL primocin (InvivoGen, cat. ant-pm-2), 10% defined fetal bovine serum, heat inactivated (HyClone Laboratories Inc., cat. SH30070.03HI), 50% L-WRN conditioned media (ATCC, cat. CRL-3276), 1.25 mM N-Acetyl-L-cysteine (Sigma-Aldrich, cat. A9165), 10 mM nicotinamide (Sigma-Aldrich, cat. N0636), 1X B-27 supplement (Thermo Fisher Scientific, cat. 17504044), 1X N-2 supplement (Thermo Fisher Scientific, cat. 17502048), 10 microM Y-27632 dihydrochloride (Tocris Bioscience, cat. 1254), and 50 ng/mL human EGF recombinant protein (Thermo Fisher Scientific, cat. PHG0311). The 485176-168-R4-J1-PDC line was cultured in Panc media, which includes all 6C/Colon 1B media components plus 100 ng/mL human FGF-10 (Thermo Fisher Scientific, cat. 100-26), 500 nM SB-431542 (Selleckchem, cat. S1067), and gastrin (Tocris, cat. 3006).
[…]

This is an account of results in PubChem BioAssay AID2060508 (Molecular Pharmacology Branch, DTP, NCI, 2025).

Molecules are shown by their SMILES. pIC50: −log10 of the molar value. Values joined by “and” are separate entries in the source; they are usually repeats but may differ in a detail not shown here. Equal values may be shown once.
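Further: spheroids exposed to compounds for seven days.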

As for `CCCS(=O)(=O)Nc1ccc(F)c(C(=O)c2c[nH]c3ncc(-c4ccc(Cl)cc4)cc23)c1F`, the viability, T/C (usually the result in the treated group divided by that in the control group, in per cent) is 105% and 121% and 109% (compound 0.0316 µM); 108% and 104% and 96.3% (compound 0.1 µM); 120% and 112% and 102% (compound 0.316 µM); 111% and 113% and 112% (compound 1 µM); 115% and 99.8% and 108% (compound 3.16 µM); 7.3% and 7.67% and 14.8% (compound 10 µM). Besides, the pIC50 (as a rule, the negative decadic logarithm of the IC50, by convention in mol/L) (curve of compound) was 5.20 and 5.23 and 5.19.
In the case of `Cc1[nH]c2ccccc2c1CCNCc1ccc(/C=C/C(=O)NO)cc1`, the viability, T/C by setting is: (compound 0.000999 µM) 106% and 102% and 99.1%; (compound 0.00316 µM) 112% and 98.9% and 102%; (compound 0.00999 µM) 103% and 102% and 105%; (compound 0.0316 µM) 87.6% and 82.6% and 84.8%; (compound 0.0999 µM) 37.9% and 37.3% and 32%; (compound 0.316 µM) 6.04% and 6.14% and 2.02%. The pIC50 (curve of compound) is 7.12 and 7.14 and 7.17.
Regarding `Cc1cnc(CNC(=O)c2c(=O)c3ccc(N4CCCN(C)CC4)nc3n3c2sc2ccccc23)cn1`, the viability, T/C is 92.6% [middle of 12 runs] (compound 0.0316 µM); 82.4% [middle of 12 runs] (compound 0.1 µM); 74% [middle of 12 runs] (compound 0.316 µM); 72.2% [middle of 12 runs] (compound 1 µM); 64.6% [middle of 12 runs] (compound 3.16 µM).
With `CC(=O)O[C@H]1C(=O)[C@@]2(C)[C@H]([C@H](OC(=O)c3ccccc3)[C@]3(O)C[C@H](OC(=O)[C@H](O)[C@@H](NC(=O)c4ccccc4)c4ccccc4)C(C)=C1C3(C)C)[C@]1(OC(C)=O)CO[C@@H]1C[C@@H]2O`, the viability, T/C is 16.1% and 19.8% and 21.1% (compound 0.0316 µM); 8.55% and 9.04% and 12.4% (compound 0.1 µM); 7.38% and 7.58% and 9.89% (compound 0.316 µM); 7.17% and 7.18% and 9.08% (compound 1 µM); 6.82% and 7.18% and 9.43% (compound 3.16 µM); 9.29% and 10.2% and 11.2% (compound 10 µM). Besides, the pIC50 (curve of compound) is above 7.50.
On to `COc1cccc2c1C(=O)c1c(O)c3c(c(O)c1C2=O)CC(O)(C(=O)CO)CC3OC1CC(N)C(O)C(C)O1` (configuration not stated), for which the viability, T/C is 96.8% and 101% and 90.3% (compound 0.0316 µM); 63.4% and 69.4% and 65.3% (compound 0.1 µM); 24.1% and 34.5% and 26.2% (compound 0.316 µM); 25.2% and 30.2% and 26.5% (compound 1 µM); 11.2% and 23.5% and 13% (compound 3.16 µM); 0.95% and 0.93% and 0.63% (compound 10 µM). Moreover, the pIC50 (curve of compound) is 6.82 and 6.65 and 6.79.
On to `CC1COCCN1c1cc(-c2ccnn2C)c2ccnc(-c3ccn[nH]3)c2n1` (configuration not stated) + CN(C)c1ccc(Nc2c3ccc(NC(=O)CCN4CCCC4)cc3nc3cc(NC(=O)CCN4CCCC4)ccc23)cc1, for which the pIC50 runs as follows: (curve of first compound, second compound 0.0316 µM) 6.74; (curve of first compound, second compound 0.1 µM) 6.72; (curve of first compound, second compound 0.316 µM) 6.72; (curve of first compound, second compound 1 µM) 6.77; (curve of first compound, second compound 3.16 µM) 6.85; (curve of first compound, second compound 10 µM) 7.10. Moreover, the viability, T/C (second compound 0.0316 µM, first compound 0.0316 µM) was 97.9%; the viability, T/C (second compound 0.0316 µM, first compound 0.1 µM) is 66.8%; the viability, T/C (second compound 0.0316 µM, first compound 0.316 µM) is 35.2%; the viability, T/C (second compound 0.0316 µM, first compound 1 µM) is 23%; the viability, T/C (second compound 0.0316 µM, first compound 3.16 µM) was 24%; the viability, T/C (second compound 0.0316 µM, first compound 10 µM) is 29.4%. The viability, T/C is, setting by setting: (second compound 0.1 µM, first compound 0.0316 µM) 102%; (second compound 0.1 µM, first compound 0.1 µM) 72%; (second compound 0.1 µM, first compound 0.316 µM) 32.9%; (second compound 0.1 µM, first compound 1 µM) 22.9%; (second compound 0.1 µM, first compound 3.16 µM) 23.1%; (second compound 0.1 µM, first compound 10 µM) 26.1%. The viability, T/C by setting is: (second compound 0.316 µM, first compound 0.0316 µM) 94.3%; (second compound 0.316 µM, first compound 0.1 µM) 74.1%; (second compound 0.316 µM, first compound 0.316 µM) 31%; (second compound 0.316 µM, first compound 1 µM) 21.3%; (second compound 0.316 µM, first compound 3.16 µM) 21.7%; (second compound 0.316 µM, first compound 10 µM) 29.4%. Besides, the viability, T/C was 91.3% (second compound 1 µM, first compound 0.0316 µM); 63.1% (second compound 1 µM, first compound 0.1 µM); 36.2% (second compound 1 µM, first compound 0.316 µM); 20.8% (second compound 1 µM, first compound 1 µM); 22.6% (second compound 1 µM, first compound 3.16 µM); 27.5% (second compound 1 µM, first compound 10 µM). The viability, T/C is 87% (second compound 3.16 µM, first compound 0.0316 µM); 55.5% (second compound 3.16 µM, first compound 0.1 µM); 38% (second compound 3.16 µM, first compound 0.316 µM); 21.3% (second compound 3.16 µM, first compound 1 µM); 26.2% (second compound 3.16 µM, first compound 3.16 µM); 27.1% (second compound 3.16 µM, first compound 10 µM). Moreover, the viability, T/C by setting is: (second compound 10 µM, first compound 0.0316 µM) 69.8%; (second compound 10 µM, first compound 0.1 µM) 45.5%; (second compound 10 µM, first compound 0.316 µM) 31.4%; (second compound 10 µM, first compound 1 µM) 27.6%; (second compound 10 µM, first compound 3.16 µM) 24.1%; (second compound 10 µM, first compound 10 µM) 27%.
As to `CC(C)n1c(=O)n(C)c2cnc3cc(F)c(-c4ccc(OCCCN5CCCCC5)nc4)cc3c21`, the viability, T/C (compound 0.0316 µM) is 104% and 111% and 96.6%; the viability, T/C (compound 0.1 µM) was 103% and 98.6% and 97.8%; the viability, T/C (compound 0.316 µM) was 97.7% and 102% and 92.9%; the viability, T/C (compound 1 µM) is 101% and 92.8% and 92.4%; the viability, T/C (compound 3.16 µM) is 91.9% and 89.9% and 91.4%; the viability, T/C (compound 10 µM) is 64% and 74.3% and 68.2%. For the same compound, for the setting “curve of compound”, the pIC50 was below 5.00.
